Type in all cases: functional, Mus musculus
Assay [1] concerns L1210. Put plainly: Effect of compound on the body weight of mice bearing the L1210 leukemia at a daily dose of 12.5-50 mg/kg.
The test system of assay [2] is B16. Description: Effect of compound on the body weight of mice bearing the B16 melanoma at a daily dose of 25 mg/kg.
The subject of assay [3] is B16. Description: Effect of compound on the body weight of mice bearing the B16 melanoma at a daily dose of 12.5 mg/kg.
Assay [4] relates to B16. Description: Effect of compound on the survival time of mice bearing the B16 melanoma at a daily dose of 12.5 mg/kg.
In assay [5] the test system is B16. Description: Effect of compound on the survival time of mice bearing the B16 melanoma at a daily dose of 25 mg/kg.
Assay [6] deals with B16. Description: Effect of compound on the body weight of mice bearing the B16 melanoma at a daily dose of 50 mg/kg.
Assay [7] relates to L1210. Description: Effect of compound on the survival time of mice bearing the L1210 leukemia at a daily dose (mg/kg) of 12.5-50.
Assay [8] has as its system B16. Put plainly: Effect of compound on the survival time of mice bearing the B16 melanoma at a daily dose (mg/kg) of 50.
Assay [9] relates to B16. Description: Effect of compound on the survival time of mice bearing the B16 melanoma at a daily dose of 100 mg/kg.
Assay [10] concerns B16. Put plainly: Effect of compound on the survival time of mice bearing the B16 melanoma at a daily dose (mg/kg) of,50.
Assay [11] relates to B16. Put plainly: Effect of compound on the body weight of mice bearing the B16 melanoma at a daily dose of 150 mg/kg.
The test system of assay [12] is B16. Put plainly: Effect of compound on the survival time of mice bearing the B16 melanoma at a daily dose of 150 mg/kg.
Assay [13] concerns B16. Put plainly: Effect of compound on the body weight of mice bearing the B16 melanoma at a daily dose of 100 mg/kg.
For assay [14], the system named is B16. Put plainly: Effect of compound on the survival time of mice bearing the B16 melanoma at a daily dose of 50 mg/kg.
Assay [15] concerns L1210. Description: Effect of compound on the survival time of mice bearing the L1210 leukemia at a daily dose of 12.5-50 mg/kg.

Regarding `COC(=O)SNN(C)S(=O)(=O)Cc1ccccc1`, the Change in weight in the assay on L1210 [1] is -8%; with B16 [2], -14.8%; in the assay with B16 [3], -2.5%; in the assay on B16 [6], -27.4%. Besides, the T/C with B16 [4] is given as 152%; in the assay with B16 [5] it was 157%; in the assay on L1210 [7] it was 100%; in the assay on B16 [8], 59%.

For `COC(=O)SNNS(=O)(=O)c1ccc(C)cc1`, the Change in weight in the assay with B16 [2] was 3.7%; in the assay on B16 [3] it was 1.6%; in the assay on B16 [6] it was -0.4%. Further, the T/C was determined as 100% with B16 [4], 113% with B16 [5] and 98% in the assay with B16 [8].

As to `COC(=O)SNN(C)S(=O)(=O)c1ccc2ccccc2c1`, the Change in weight with B16 [2] is reported as 1.4%; with B16 [3] it was -0.2%; in the assay on B16 [6] it was -4.8%. For the same compound, the T/C in the assay with B16 [4] is reported as 123%; in the assay with B16 [5], 140%; in the assay on B16 [8] it was 163%.

For `CN(C)/N=N/c1[nH]cnc1C(N)=O` [DACARBAZINE], the figures for the T/C in the assay on B16 [9], with B16 [10] and with B16 [12] were 161%, 135% and 177%, respectively. Also, the Change in weight with B16 [3] is -2.3%; in the assay on B16 [11], -5.7%; in the assay on B16 [13], -4.4%.

For `COC(=O)SNN(C)S(=O)(=O)c1ccccc1`, the Change in weight in the assay with L1210 [1] is on record as -10.9%; in the assay with B16 [2], -13%; in the assay with B16 [3], -5.2%; with B16 [6], -33.4%. For the same compound, the T/C in the assay with B16 [4] was 169%; in the assay on B16 [5], 183%; with B16 [14], 49%; in the assay on L1210 [15] it was 113%.

For the compound `COC(=O)SNN(C)S(=O)(=O)c1ccc(Br)cc1`, the Change in weight is -0.2% in the assay with L1210 [1], -5.5% in the assay on B16 [2], -2% in the assay with B16 [3] and -11.4% with B16 [6]. Besides, the T/C in the assay on B16 [4] came to 144%; in the assay on B16 [5] it was 146%; with L1210 [7], 122%; in the assay on B16 [8], 160%.

As to `COC(=O)SNN(C)S(=O)(=O)c1ccc(OC)cc1`, the Change in weight in the assay on L1210 [1] is recorded as -6.7%; in the assay on B16 [2], -6.4%; with B16 [3] it was -0.2%; in the assay with B16 [6], -18.7%. Also, the T/C came out at 148% in the assay on B16 [4], 160% in the assay with B16 [5], 149% in the assay on L1210 [7] and 177% in the assay on B16 [8].

On to `COC(=O)SNN(C)S(=O)(=O)c1ccc(C)cc1`, for which the Change in weight in the assay on L1210 [1] was -4.2%; in the assay with B16 [2] it was -3.3%; with B16 [3], 0.7%; in the assay on B16 [6] it was -17.7%. Also, the T/C stood at 182% in the assay with B16 [4], 199% in the assay with B16 [5], 118% in the assay with L1210 [7] and 232% with B16 [8].

These data come from ChEMBL document CHEMBL1123443, “Synthesis and evaluation of 1-(arylsulfonyl)-2-[(methoxycarbonyl)sulfenyl]-1-methylhydrazines++ + as antineoplastic agents” (1986).
